In patent US10718006B2, “Methods for detecting beta-lactamase-producing bacteria” (priority 2015, dated 2020):

Assays:
[1] = tested on: E. coli strains ESBL+ (MIAE6690) and ESBL− (K12); experiment: Optical density of E. coli strains cultured with cefotaxime; type: cell-based
[2] = tested on: ESBL+ E. coli strain; experiment: ESBL+ E. coli cultured with cefotaxime with or without clavulanate potassium; type: cell-based
Method: FIG. 4: Cyclic voltammograms (v=50 mV·s^−1) recorded with a screen-printed sensor for the E. coli strain ESBL^+ cultured in a culture medium containing only 4 μg·mL^−1 of cefotaxime (A) or supplemented with 10 μg·mL^−1 of clavulanate potassium, then centrifuged (1 mL; 7000 g; 10 min) before a step of incubation of the pellet with 50 μL in a 500-μM solution of nitrocefin in PBS for 10 min.
Since the hyperproduced cephalosporinases and the carbapenemases can also hydrolyse cefotaxime, the bacteria producing these enzymes can also give a positive response in the presence of cefotaxime. In order to distinguish the bacteria producing extended-spectrum beta-lactamases and the bacteria producing hyperproduced cephalosporinases and carbapenemases, the bacteria were cultured simultaneously in two culture media, one containing cefotaxime as antibiotic, the other additionally containing clavulanate potassium as inhibitor of ESBLs. After recovering the bacteria, the bacterial pellets were incubated with nitrocefin as substrate.

[3] = Cyclic voltammetry of nitrocefin and its form hydrolyzed by ESBL; type: physicochemical; conditions: screen-printed carbon electrodes; for peak of irreversible anodic oxidation (a1): PBS pH 7.0
Description: Each sensor consists of the working electrode and a counter-electrode. The working area of the sensor (7.07 mm^2) is delimited with an adhesive ring, which also allows the electrochemical cell to be defined. For carrying out amperometric measurement, the sensor is inserted in a connector (Dropsens) connected to the potentiostat, and then a 20-μL drop of the solution to be analyzed is deposited on the surface of the sensor. After immersing a silver wire coated with a silver chloride precipitate (Ag/AgCl), which constitutes the reference electrode, the measurements are carried out by cyclic voltammetry (v=50 mV·s^−1) at ambient temperature.
5 μL of ESBL solution is put in a polypropylene tube containing 45 μL of 0.5 mM nitrocefin solution in phosphate buffer (PBS; 100 mM; pH=7.0). After a step of incubation for 10 minutes at ambient temperature in the dark, 20 μL of the mixture is taken and transferred onto the surface of the screen-printed carbon sensor. A reference electrode (Ag/AgCl) is then immersed in the 20 μL of solution previously deposited, and the cyclic voltammetry measurements are carried out by proceeding as follows: potential scanning between −0.4 V and 1.2 V at a rate of 50 mV·s^−1.
The oxidation peak appearing at about +0.3 V results from hydrolysis of the beta-lactam ring of nitrocefin and may be selected as the analytical response for identifying beta-lactamases in a sample.
Nitrocefin was hydrolyzed by an extended-spectrum beta-lactamase in an abundant quantity. The voltammetric behaviour of nitrocefin (S) and of its hydrolyzed form (P) was investigated by cyclic voltammetry using screen-printed electrodes based on carbon. Nitrocefin and hydrolyzed nitrocefin both have a peak of irreversible anodic oxidation (a1) at about +1.0 V vs. Ag/AgCl. This peak may be attributed to oxidation of the thiol group in the dihydrothiazine group or to other functions specific to the cephalosporin derivatives. […]

[4] = tested on: E. coli strains ESBL+ (MIAE6690) and ESBL− (K12); experiment: Voltammetric detection of ESBL-producing E. coli with nitrocefin; type: cell-based; conditions: pellet incubated 10 min with 500 μM nitrocefin
Method: Then 1 mL of each bacterial suspension is transferred to a polypropylene tube and centrifuged at 7000 g for 10 min. After removing the supernatant, a volume of 50 μL of nitrocefin solution (0.5 mM in PBS) is put in the tube and incubated with the bacterial pellet for 10 min at ambient temperature in the dark. The liquid is then aspirated and transferred onto the screen-printed sensor to carry out the voltammetric measurement as stated in section 1.3.
To evaluate the capacity of the voltammetric method for detecting the ESBL-producing bacteria, two strains of E. coli with a well-characterized genotype were selected, one being a producer of an ESBL (ESBL^+) and the other not producing ESBL (ESBL^−). First the two strains are cultured in LB medium containing 4 μg·mL^−1 of cefotaxime. After the centrifugation step, the respective bacterial pellets of these two strains are incubated with nitrocefin as substrate. […] The culture medium supplemented with cefotaxime and the medium without antibiotic were also subjected to voltammetric measurement. No specific signal is observed in the potential range [0.1-0.6 V vs. Ag/AgCl] for these two media, which confirms that neither the LB culture medium, nor cefotaxime interferes with voltammetric detection.

**Q.** Which optical density ([1]; ESBL+ E. coli strain cultured in LB with 4 μg·mL^−1 cefotaxime) does the source give for `CO/N=C(\C(=O)N[C@@H]1C(=O)N2C(C(=O)O)=C(COC(C)=O)CS[C@H]12)c1csc(N)n1` [cefotaxime] here?
**A.** 0.934

**Q.** What about the optical density ([1]; ESBL− E. coli strain cultured in LB with 4 μg·mL^−1 cefotaxime) of the same molecule?
**A.** 0.002

**Q.** What about the “E. coli count on selective medium” value ([2]; culture with cefotaxime without inhibitor) of the same molecule?
**A.** 1.8×10^8 CFU·mL^−1

**Q.** Which “anodic peak resulting from hydrolysis of nitrocefin” value ([2]; ESBL+ strain cultured with 4 μg·mL^−1 cefotaxime and 10 μg·mL^−1 clavulanate potassium) does the source give for `O=C(O)[C@H]1/C(=C/CO)O[C@@H]2CC(=O)N21` [clavulanate potassium] here?
**A.** no signal was recorded

**Q.** And the “E. coli count on selective medium” value ([2]; culture with cefotaxime supplemented with an inhibitor (clavulanate potassium))?
**A.** 80 CFU·mL^−1

**Q.** For `O=C(Cc1cccs1)NC(C(=O)O)C1NC(C(=O)O)=C(C=Cc2ccc([N+](=O)[O-])cc2[N+](=O)[O-])CS1` (stereo not shown) [hydrolyzed nitrocefin], which “peak of irreversible anodic oxidation (a1)” value [3] is on record?
**A.** about +1.0 V vs. Ag/AgCl

**Q.** What about the “peak of irreversible anodic oxidation (a2)” value ([3]; PBS pH 7.0, nitrocefin hydrolyzed by ESBL) of the same molecule?
**A.** about +0.3 V

**Q.** Which results are given for `O=C(Cc1cccs1)N[C@@H]1C(=O)N2C(C(=O)O)=C(/C=C/c3ccc([N+](=O)[O-])cc3[N+](=O)[O-])CS[C@H]12` [nitrocefin]?
**A.** peak of irreversible anodic oxidation (a1) [3]: about +1.0 V vs. Ag/AgCl; anodic peak associated with hydrolysis of the β-lactam ring of nitrocefin ([4]; ESBL+ E. coli strain): about +0.4 V vs. Ag/AgCl; anodic peak associated with hydrolysis of the β-lactam ring of nitrocefin ([4]; ESBL− E. coli strain): no peak is recorded
